Like-named read-outs stand apart in the source and are kept apart here.
Tests used:
IIIB strain of HIV-1 = assay: Anti-HIV-1 activity: protection of infected MT-2 cells, MTT colorimetric method; assay type: cell-based; conditions: for fold lower potency (higher EC50) than the corresponding DMA ether: Table 2b compounds
MT-2 human T-cells = assay: Cytotoxicity: inhibition of MT-2 cell growth; assay type: cell-based
Text: (§1) The preparation of the analogues 4a-h involved the reaction between 2-bromothiazole 1 with the corresponding 5-amino-2-R-phenol 2, followed by reaction with 4-bromo-2-methyl-2-butene in presence of Cs2CO3 as a base (Scheme 1; see Table 1 for antiviral activities (EC50) and cytotoxicities (IC50) of these compounds, as determined using human MT-2 cells infected with IIIB strain of HIV-1).
(§2) See, Ruiz-Caro, supra. and Lin, et al., Biochem. Pharmacol. 1994, 47, 171-174.

[1] = Cytotoxicity: inhibition of MT-2 cell growth; assay type: cell-based, human; conditions: human, MT-2 T-cells; Table 2b; MT-2 cells
Text: as §1, §2

[2] = Table 1B, for 50% protection in MT-2 cells, triplicate samples, NA for EC50 > CC50, read-out: EC50
[3] = Table 1B, for 50% inhibition of MT-2 cell growth, triplicate samples
[4] = Human immunodeficiency virus 1, IIIB, MT2
[5] = Table 2b, derivatives of pyrimidine 11, NA for EC50 > CC50, read-out: EC50
[6] = Table 3, thiazoles 18-23, N/A read as no activity, read-out: EC50
[7] = Table 3, cytotoxicity, MT-2 cells, read-out: IC50
[8] = Human immunodeficiency virus 1, IIIB, MT2, Table 1a, heteroaryl derivatives, N/A read as no activity, read-out: EC50
[9] = Homo sapiens, MT2, Table 1a, cytotoxicity, MT-2 cells, read-out: IC50
[10] = Human immunodeficiency virus 1, IIIB, MT2, read-out: EC50
[11] = Homo sapiens, MT2, Table of bicyclic-heteroaryl phenyl amines, cytotoxicity, MT-2 cell assays, read-out: IC50
[12] = Human immunodeficiency virus 1, IIIB, MT2, Table of bicyclic-heteroaryl phenyl amines, MT-2 cell assays, read-out: EC50
[13] = Table of bicyclic-heteroaryl phenyl amines, MT-2 cell assays, read-out: EC50
[14] = Table of bicyclic-heteroaryl phenyl amines, cytotoxicity, MT-2 cell assays, read-out: IC50

## CCc1ccnc(Nc2ccc(Cl)c(OCC=C(C)C)c2)n1 [Compound 9p]
IIIB strain of HIV-1; [2]
  EC50: 16 nM
MT-2 human T-cells; [3]
  CC50: 330 nM

## CC(C)=CCOc1cc(Nc2nc(CO)cs2)ccc1C [Compound 10b, (2-(4-Methyl-3-(3-methylbut-2-enyloxy)phenylamino)thiazol-4-yl)methanol]
IIIB strain of HIV-1; [4]
  EC50: 13000 nM
MT-2 human T-cells; Homo sapiens, MT2
  IC50: 23 µM

## COc1ccc(Nc2nc(CO)cs2)cc1OCC=C(C)C [Compound 10c, (2-(4-Methoxy-3-(3-methylbut-2-enyloxy)phenylamino)thiazol-4-yl)methanol]
IIIB strain of HIV-1; [4]
  EC50: 9000 nM
MT-2 human T-cells; Homo sapiens, MT2
  IC50: 80 µM

## CNc1ccnc(Nc2ccc(C#N)c(OCC=C(C)C)c2)n1 [Compound 10d]
IIIB strain of HIV-1; [2]
  EC50: 5 nM
MT-2 human T-cells; [3]
  CC50: 22 nM

## COc1cc(OC)nc(Nc2ccc(C#N)c(OCC=C(C)C)c2)n1 [Compound 10h]
IIIB strain of HIV-1; [2]
  EC50: 160 nM
MT-2 human T-cells; [3]
  CC50: 810 nM

## C/C=C/COc1cc(Nc2ncccn2)ccc1Cl [Compound 11a]
IIIB strain of HIV-1
  fold lower potency (higher EC50) than the corresponding DMA ether: ca. 10 fold
IIIB strain of HIV-1; [5]
  EC50: 2300 nM
MT-2 human T-cells; Table 2b, MT-2 cells
  CC50: 31000 nM

## Clc1ccc(Nc2ncccn2)cc1Oc1ccccc1 [Compound 11b]
IIIB strain of HIV-1
  fold lower potency (higher EC50) than the corresponding DMA ether: ca. 100 fold
IIIB strain of HIV-1; [5]
  EC50: 13000 nM
MT-2 human T-cells; Table 2b, MT-2 cells
  CC50: 30000 nM

## C/C=C/COc1cc(Nc2nccc(OC)n2)ccc1Cl [Compound 11c]
IIIB strain of HIV-1
  fold lower potency (higher EC50) than the corresponding DMA ether: ca. 10 fold
IIIB strain of HIV-1; [5]
  EC50: 89 nM
MT-2 human T-cells; Table 2b, MT-2 cells
  CC50: 17000 nM

## COc1ccnc(Nc2ccc(Cl)c(Oc3ccccc3)c2)n1 [Compound 11d]
IIIB strain of HIV-1
  fold lower potency (higher EC50) than the corresponding DMA ether: ca. 100 fold
IIIB strain of HIV-1; [5]
  EC50: 2500 nM
MT-2 human T-cells; Table 2b, MT-2 cells
  CC50: 38000 nM

## CC/C(C)=C\COc1cc(Nc2nccs2)ccc1Cl [Compound 18d, (E/Z)-N-(4-chloro-3-(3-methylpent-2-enyloxy)phenyl)thiazol-2-amine]
IIIB strain of HIV-1; [6]
  EC50: 1000 nM
MT-2 human T-cells; [7]
  IC50: 18 µM

## CC(C)=CCOc1cc(Nc2ncccn2)ccc1C [Compound 39b, N-(4-Methyl-3-(3-methylbut-2-enyloxy)phenyl)pyrimidin-2-amine]
IIIB strain of HIV-1; [8]
  EC50: 2800 nM
MT-2 human T-cells; [9]
  IC50: 78 µM

## CC(C)=CCOc1cc(Nc2ncccn2)ccc1Cl [Compound 39d, N-(4-Chloro-3-(3-methylbut-2-enyloxy)phenyl)pyrimidin-2-amine]
IIIB strain of HIV-1; [8]
  EC50: 200 nM
[1]
  CC50: 2500 nM
MT-2 human T-cells; [9]
  IC50: 2.5 µM
MT-2 human T-cells; Homo sapiens, MT2, Table 2a, cytotoxicity, MT-2 cells, read-out: IC50
  IC50: < 0.2 µM

## CC(C)=CCOc1cc(Nc2ncccn2)ccc1C#N [Compound 39h, N-(4-Cyano-3-(3-methylbut-2-enyloxy)phenyl)pyrimidin-2-amine]
IIIB strain of HIV-1; [10]
  EC50: 17 nM
MT-2 human T-cells; [9]
  IC50: < 0.2 µM
MT-2 human T-cells; [3]
  CC50: 36 nM

## CC(C)=CCOc1cc(Nc2nccc(N)n2)ccc1C [Compound 40b, N^2-(4-Methyl-3-(3-methylbut-2-enyloxy)phenyl)pyrimidin-2,4-diamine]
IIIB strain of HIV-1; [8]
  EC50: 350 nM
MT-2 human T-cells; [9]
  IC50: 6.5 µM

## CC(C)=CCOc1cc(Nc2nccc(N)n2)ccc1Cl [Compound 40d, N^2-(4-Chloro-3-(3-methylbut-2-enyloxy)phenyl)pyrimidin-2,4-diamine]
IIIB strain of HIV-1; [8]
  EC50: 75 nM
MT-2 human T-cells; [9]
  IC50: > 1 µM

## CC(C)=CCOc1cc(Nc2nccc(C)n2)ccc1Cl [Compound 41d, N-(4-Chloro-3-(3-methylbut-2-enyloxy)phenyl)-4-methylpyrimidin-2-amine]
IIIB strain of HIV-1; [10]
  EC50: 39 nM
MT-2 human T-cells; [9]
  IC50: < 0.2 µM
MT-2 human T-cells; [3]
  CC50: 150 nM

## COc1ccnc(Nc2ccc(C)c(OCC=C(C)C)c2)n1 [Compound 42b, 4-Methoxy-N-(4-methyl-3-(3-methylbut-2-enyloxy)phenyl)pyrimidin-2-amine]
IIIB strain of HIV-1; [8]
  EC50: 320 nM
MT-2 human T-cells; [9]
  IC50: 41 µM

## COc1ccnc(Nc2ccc(Cl)c(OCC=C(C)C)c2)n1 [Compound 42d, N-(4-Chloro-3-(3-methylbut-2-enyloxy)phenyl)-4-methoxypyrimidin-2-amine]
IIIB strain of HIV-1; [8]
  EC50: 10 nM
MT-2 human T-cells; [9]
  IC50: 9 µM

## CSc1ccnc(Nc2ccc(Cl)c(OCC=C(C)C)c2)n1 [Compound 48]
IIIB strain of HIV-1; Table 1a, heteroaryl derivatives, N/A read as no activity, read-out: EC50
  EC50: 180 nM
MT-2 human T-cells; Table 1a, cytotoxicity, MT-2 cells, read-out: IC50
  IC50: 2.8 µM

## Cc1nccc(C(F)(F)F)n1 [Compound 49]
IIIB strain of HIV-1; [8]
  EC50: 65 nM
MT-2 human T-cells; [9]
  IC50: 2.5 µM

## O=C1Nc2ccc(Cl)cc2[C@@](C#CC2CC2)(C(F)(F)F)O1 [Efavirenz, efavirenz, reference compound]
IIIB strain of HIV-1; [10]
  EC50: 2 nM
MT-2 human T-cells; [11]
  IC50: > 0.1 µM
MT-2 human T-cells; [3]
  CC50: > 100 nM

## CC(C)=CCOc1cc(Nc2nccc3occc23)ccc1Cl [compound 54]
IIIB strain of HIV-1; [12]
  EC50: 6 nM
MT-2 human T-cells; [11]
  IC50: 25 µM

## CC(C)=CCOc1cc(Nc2nccc3cc[nH]c23)ccc1Cl [compound 58]
IIIB strain of HIV-1; [12]
  EC50: 900 nM
MT-2 human T-cells; [11]
  IC50: 9.2 µM

## CC(C)=CCOc1cc(Nc2nccc3cccn23)ccc1Cl [compound 59]
IIIB strain of HIV-1; [12]
  EC50: 130 nM
MT-2 human T-cells; [11]
  IC50: 17 µM

## CC(C)=CCOc1cc(Nc2nccn3cccc23)ccc1Cl [compound 60]
IIIB strain of HIV-1; [12]
  EC50: 19 nM
MT-2 human T-cells; [11]
  IC50: 20 µM

## CC(C)=CCOc1cc(Nc2ncc3ccoc3n2)ccc1Cl [compound 61]
IIIB strain of HIV-1; [12]
  EC50: 130 nM
MT-2 human T-cells; [11]
  IC50: 20 µM

## CC(C)=CCOc1cc(Nc2nccc3ccoc23)ccc1Cl [furopyridine 56a]
IIIB strain of HIV-1; [13]
  EC50: 80 nM
MT-2 human T-cells; [14]
  IC50: 21 µM

## CC(C)=CCOc1cc(Nc2nccc3ccoc23)ccc1C#N [furopyridine 56b]
IIIB strain of HIV-1; [13]
  EC50: 11 nM
MT-2 human T-cells; [14]
  IC50: 0.091 µM

## CC(C)=CCOc1cc(Nc2nccc3ccccc23)ccc1Cl [isoquinoline 62a]
IIIB strain of HIV-1; [13]
  EC50: 34 nM
MT-2 human T-cells; [14]
  IC50: 19 µM

## CC(C)=CCOc1cc(Nc2nccc3ccccc23)ccc1C#N [isoquinoline 62b]
IIIB strain of HIV-1; [13]
  EC50: 3 nM
MT-2 human T-cells; [14]
  IC50: 4.4 µM

## N-(4-Chloro-3-(cyclopentenyloxy)phenyl)thiazol-2-amine [Compound 20d]
IIIB strain of HIV-1; [6]
  EC50: 5000 nM
MT-2 human T-cells; [7]
  IC50: 15 µM

From patent US9018209B2, “Compounds and methods for the treatment of viruses and cancer” (Yale University, priority 2005, dated 2015)
